Assay results from ChEMBL document CHEMBL1201861, “Genomics of Drug Sensitity in Cancer screening data, Wellcome Trust Sanger Institute”.

Assays:
Assay in all cases: cells
Format in all cases: functional, cell-based, Homo sapiens
UACC-257 = conditions: Homo sapiens, UACC-257
Description: SANGER: Inhibition of human UACC-257 cell growth in a cell viability assay.

SW684 = conditions: Homo sapiens, SW684;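 note: growth inhibition of human SW684 cells, measured by a cell viability assay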
Description: SANGER: Inhibition of human SW684 cell growth in a cell viability assay.

D-247MG = conditions: Homo sapiens, D-247MG
Description: SANGER: Inhibition of human D-247MG cell growth in a cell viability assay.

JVM-2 = conditions: Homo sapiens, JVM-2;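 note: growth inhibition of JVM-2 cells determined by a cell viability assay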
Description: SANGER: Inhibition of human JVM-2 cell growth in a cell viability assay.

SBC-1 = conditions: Homo sapiens, SBC-1;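 note: cell viability assay measuring growth inhibition of the SBC-1 cell line, IC50 being the concentration that halves growth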
Description: SANGER: Inhibition of human SBC-1 cell growth in a cell viability assay.

RPMI-8866 = conditions: Homo sapiens, RPMI-8866
Description: SANGER: Inhibition of human RPMI-8866 cell growth in a cell viability assay.

HT = conditions: Homo sapiens, HT
Description: SANGER: Inhibition of human HT cell growth in a cell viability assay.

NB5 = conditions: Homo sapiens, NB5;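 note: growth inhibition of NB5 cells, read out as cell viability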
Description: SANGER: Inhibition of human NB5 cell growth in a cell viability assay.

NCI-H1155 = conditions: Homo sapiens, NCI-H1155;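 note: cell growth inhibition measured by a viability assay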
Description: SANGER: Inhibition of human NCI-H1155 cell growth in a cell viability assay.

DOHH-2 = conditions: Homo sapiens, DOHH-2;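 note: growth inhibition of human DOHH-2 cells, read out with a cell viability assay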
Description: SANGER: Inhibition of human DOHH-2 cell growth in a cell viability assay.

NCI-H1581 = conditions: Homo sapiens, NCI-H1581;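 note: cell growth inhibition read out by a viability assay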
Description: SANGER: Inhibition of human NCI-H1581 cell growth in a cell viability assay.

COLO-320-HSR = conditions: Homo sapiens, COLO-320-HSR;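 note: growth inhibition of COLO-320-HSR cells, determined with a cell viability assay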
Description: SANGER: Inhibition of human COLO-320-HSR cell growth in a cell viability assay.

MZ1-PC = conditions: Homo sapiens, MZ1-PC;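 note: cell viability assay measuring growth inhibition of human MZ1-PC cells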
Description: SANGER: Inhibition of human MZ1-PC cell growth in a cell viability assay.

ES4 = conditions: Homo sapiens, ES4;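 note: growth inhibition of human ES4 cells, read out by a cell viability assay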
Description: SANGER: Inhibition of human ES4 cell growth in a cell viability assay.

SK-MEL-1 = conditions: Homo sapiens, SK-MEL-1;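 note: growth inhibition of human SK-MEL-1 cells, read out by a cell viability assay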
Description: SANGER: Inhibition of human SK-MEL-1 cell growth in a cell viability assay.

NB6 = conditions: Homo sapiens, NB6;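 note: growth inhibition of NB6 cells, read out by a cell viability assay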
Description: SANGER: Inhibition of human NB6 cell growth in a cell viability assay.

VA-ES-BJ = conditions: Homo sapiens, VA-ES-BJ;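 note: growth inhibition of the VA-ES-BJ cell line, read out by a cell viability assay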
Description: SANGER: Inhibition of human VA-ES-BJ cell growth in a cell viability assay.

MMAC-SF = conditions: Homo sapiens, MMAC-SF;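 note: growth inhibition of human MMAC-SF cells, read out with a cell viability assay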
Description: SANGER: Inhibition of human MMAC-SF cell growth in a cell viability assay.

TK-10 = conditions: Homo sapiens, TK-10;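 note: growth inhibition of TK-10 cells, read out in a cell viability assay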
Description: SANGER: Inhibition of human TK10 cell growth in a cell viability assay.

LB1047-RCC = conditions: Homo sapiens, LB1047-RCC;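 note: inhibition of cell growth, determined with a cell viability assay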
Description: SANGER: Inhibition of human LB1047-RCC cell growth in a cell viability assay.

NCI-H69 = conditions: Homo sapiens, NCI-H69;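 note: growth inhibition of the cell line, read out with a cell viability assay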
Description: SANGER: Inhibition of human NCI-H69 cell growth in a cell viability assay.

TE-10 = conditions: Homo sapiens, TE-10;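 note: growth inhibition of TE-10 cells, measured by a cell viability assay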
Description: SANGER: Inhibition of human TE-10 cell growth in a cell viability assay.

CTB-1 = conditions: Homo sapiens, CTB-1
Description: SANGER: Inhibition of human CTB-1 cell growth in a cell viability assay.

HL-60 = conditions: Homo sapiens, HL-60;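 note: growth inhibition of human HL-60 cells, read out with a cell viability assay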
Description: SANGER: Inhibition of human HL-60 cell growth in a cell viability assay.

NCI-H209 = conditions: Homo sapiens, NCI-H209;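 note: growth inhibition of human NCI-H209 cells, measured by a cell viability assay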
Description: SANGER: Inhibition of human NCI-H209 cell growth in a cell viability assay.

ETK-1 = conditions: Homo sapiens, ETK-1;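 note: growth inhibition of human ETK-1 cells, read out with a cell viability assay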
Description: SANGER: Inhibition of human ETK-1 cell growth in a cell viability assay.

EC-GI-10 = conditions: Homo sapiens, EC-GI-10
Description: SANGER: Inhibition of human EC-GI-10 cell growth in a cell viability assay.

no-11 = conditions: Homo sapiens;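 note: growth inhibition of human NO-11 cells, read out with a cell viability assay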
Description: SANGER: Inhibition of human no-11 cell growth in a cell viability assay.

NB12 = conditions: Homo sapiens, NB12;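 note: growth inhibition of human NB12 cells, read out by a cell viability assay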
Description: SANGER: Inhibition of human NB12 cell growth in a cell viability assay.

RXF 393 = conditions: Homo sapiens, RXF 393;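 note: growth inhibition of human RXF 393 cells, read out with a cell viability assay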
Description: SANGER: Inhibition of human RXF393 cell growth in a cell viability assay.

COLO-800 = conditions: Homo sapiens, COLO-800;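 note: growth inhibition of COLO-800 cells, read out with a cell viability assay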
Description: SANGER: Inhibition of human COLO-800 cell growth in a cell viability assay.

COLO-829 = conditions: Homo sapiens, COLO-829
Description: SANGER: Inhibition of human COLO-829 cell growth in a cell viability assay.

SF-268 = conditions: Homo sapiens, SF-268;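 note: growth inhibition of SF-268 cells determined with a cell viability assay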
Description: SANGER: Inhibition of human SF268 cell growth in a cell viability assay.

C8166 = conditions: Homo sapiens, C8166;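 note: growth inhibition of human C8166 cells measured by a cell viability assay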
Description: SANGER: Inhibition of human C8166 cell growth in a cell viability assay.

TE-9 = conditions: Homo sapiens, TE-9;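 note: cell growth inhibition, measured with a cell viability readout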
Description: SANGER: Inhibition of human TE-9 cell growth in a cell viability assay.

HCC2157 = conditions: Homo sapiens, HCC2157;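 note: growth inhibition of the cancer cell line, read out as cell viability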
Description: SANGER: Inhibition of human HCC2157 cell growth in a cell viability assay.

GAK = conditions: Homo sapiens, GAK;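 note: cell growth inhibition read out by a cell viability assay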
Description: SANGER: Inhibition of human GAK cell growth in a cell viability assay.

MN-60 = conditions: Homo sapiens, MN-60;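 note: growth inhibition of the MN-60 cell line, determined with a cell viability assay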
Description: SANGER: Inhibition of human MN-60 cell growth in a cell viability assay.

TE-5 = conditions: Homo sapiens, TE-5;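 note: inhibition of cell growth, read out by a cell viability assay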
Description: SANGER: Inhibition of human TE-5 cell growth in a cell viability assay.

BV-173 = conditions: Homo sapiens, BV-173
Description: SANGER: Inhibition of human BV-173 cell growth in a cell viability assay.

L-363 = conditions: Homo sapiens, L-363
Description: SANGER: Inhibition of human L-363 cell growth in a cell viability assay.

LB996-RCC = conditions: Homo sapiens, LB996-RCC
Description: SANGER: Inhibition of human LB996-RCC cell growth in a cell viability assay.

ES1 = conditions: Homo sapiens, ES1;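 note: growth inhibition of ES1 cells, read out with a cell viability assay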
Description: SANGER: Inhibition of human ES1 cell growth in a cell viability assay.

NMC-G1 = conditions: Homo sapiens, NMC-G1;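 note: growth inhibition of the NMC-G1 cell line, measured with a cell viability read-out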
Description: SANGER: Inhibition of human NMC-G1 cell growth in a cell viability assay.

NCI-H1092 = conditions: Homo sapiens, NCI-H1092;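 note: cell growth inhibition measured with a cell viability assay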
Description: SANGER: Inhibition of human NCI-H1092 cell growth in a cell viability assay.

KLE = conditions: Homo sapiens, KLE;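 note: growth inhibition of human KLE cells, read out with a cell viability assay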
Description: SANGER: Inhibition of human KLE cell growth in a cell viability assay.

NCI-H1299 = conditions: Homo sapiens, NCI-H1299;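 note: growth inhibition of human NCI-H1299 cells, read out by a cell viability assay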
Description: SANGER: Inhibition of human NCI-H1299 cell growth in a cell viability assay.

LS-123 = conditions: Homo sapiens, LS-123
Description: SANGER: Inhibition of human LS-123 cell growth in a cell viability assay.

NH-12 = conditions: Homo sapiens, NH-12;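 note: growth inhibition of NH-12 cells, read out with a cell viability assay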
Description: SANGER: Inhibition of human NH-12 cell growth in a cell viability assay.

SMILES: N#Cc1c(O)c2c(-c3ccc(-c4ccccc4O)cc3)csc2[nH]c1=O
- IC50 (UACC-257): > 1.02 µM
- IC50 (SW684): > 1.02 µM
- IC50 (D-247MG): > 1.02 µM
- IC50 (JVM-2): > 1.02 µM
- IC50 (SBC-1): > 1.02 µM
- IC50 (RPMI-8866): > 1.02 µM
- IC50 (HT): 0.335 µM
- IC50 (NB5): > 1.02 µM
- IC50 (NCI-H1155): > 1.02 µM
- IC50 (DOHH-2): 0.245 µM
- IC50 (NCI-H1581): > 1.02 µM
- IC50 (COLO-320-HSR): > 1.02 µM
- IC50 (MZ1-PC): > 1.02 µM
- IC50 (ES4): > 1.02 µM
- IC50 (SK-MEL-1): > 1.02 µM
- IC50 (NB6): > 1.02 µM
- IC50 (VA-ES-BJ): > 1.02 µM
- IC50 (MMAC-SF): > 1.02 µM
- IC50 (TK-10): > 1.02 µM
- IC50 (LB1047-RCC): > 1.02 µM
- IC50 (NCI-H69): > 1.02 µM
- IC50 (TE-10): > 1.02 µM
- IC50 (CTB-1): > 1.02 µM
- IC50 (HL-60): 0.0974 µM
- IC50 (NCI-H209): > 1.02 µM
- IC50 (ETK-1): > 1.02 µM
- IC50 (EC-GI-10): > 1.02 µM
- IC50 (no-11): > 1.02 µM
- IC50 (NB12): > 1.02 µM
- IC50 (RXF 393): > 1.02 µM
- IC50 (COLO-800): > 1.02 µM
- IC50 (COLO-829): > 1.02 µM
- IC50 (SF-268): > 1.02 µM
- IC50 (C8166): 0.0662 µM
- IC50 (TE-9): > 1.02 µM
- IC50 (HCC2157): 0.105 µM
- IC50 (GAK): > 1.02 µM
- IC50 (MN-60): 0.346 µM
- IC50 (TE-5): > 1.02 µM
- IC50 (BV-173): > 1.02 µM
- IC50 (L-363): 0.211 µM
- IC50 (LB996-RCC): > 1.02 µM
- IC50 (ES1): > 1.02 µM
- IC50 (NMC-G1): > 1.02 µM
- IC50 (NCI-H1092): 0.541 µM
- IC50 (KLE): > 1.02 µM
- IC50 (NCI-H1299): > 1.02 µM
- IC50 (LS-123): > 1.02 µM
- IC50 (NH-12): 0.0369 µM

SMILES: COc1cc2ncn(-c3cc(OCc4ccccc4S(C)(=O)=O)c(C#N)s3)c2cc1OC [GSK-319347A]
- IC50 (UACC-257): > 5 µM
- IC50 (SW684): > 5 µM
- IC50 (D-247MG): > 5 µM
- IC50 (JVM-2): > 5 µM
- IC50 (SBC-1): > 5 µM
- IC50 (RPMI-8866): > 5 µM
- IC50 (HT): > 5 µM
- IC50 (NB5): > 5 µM
- IC50 (NCI-H1155): > 5 µM
- IC50 (DOHH-2): > 5 µM
- IC50 (NCI-H1581): > 5 µM
- IC50 (COLO-320-HSR): > 5 µM
- IC50 (MZ1-PC): > 5 µM
- IC50 (ES4): > 5 µM
- IC50 (SK-MEL-1): > 5 µM
- IC50 (NB6): > 5 µM
- IC50 (VA-ES-BJ): > 5 µM
- IC50 (MMAC-SF): > 5 µM
- IC50 (TK-10): > 5 µM
- IC50 (LB1047-RCC): > 5 µM
- IC50 (NCI-H69): > 5 µM
- IC50 (TE-10): > 5 µM
- IC50 (CTB-1): > 5 µM
- IC50 (HL-60): > 5 µM
- IC50 (NCI-H209): > 5 µM
- IC50 (ETK-1): > 5 µM
- IC50 (EC-GI-10): > 5 µM
- IC50 (no-11): > 5 µM
- IC50 (NB12): > 5 µM
- IC50 (RXF 393): > 5 µM
- IC50 (COLO-800): > 5 µM
- IC50 (COLO-829): > 5 µM
- IC50 (SF-268): > 5 µM
- IC50 (C8166): > 5 µM
- IC50 (TE-9): > 5 µM
- IC50 (HCC2157): > 5 µM
- IC50 (GAK): > 5 µM
- IC50 (MN-60): > 5 µM
- IC50 (TE-5): > 5 µM
- IC50 (BV-173): > 5 µM
- IC50 (L-363): > 5 µM
- IC50 (LB996-RCC): > 5 µM
- IC50 (ES1): > 5 µM
- IC50 (NMC-G1): > 5 µM
- IC50 (NCI-H1092): > 5 µM
- IC50 (NCI-H1299): > 5 µM
- IC50 (LS-123): > 5 µM
- IC50 (NH-12): > 5 µM

SMILES: CCN(CC)CCCCNc1ncc2cc(-c3cc(OC)cc(OC)c3)c(NC(=O)NC(C)(C)C)nc2n1 [PD-173074]
- IC50 (UACC-257): > 2 µM
- IC50 (SW684): > 2 µM
- IC50 (D-247MG): > 2 µM
- IC50 (JVM-2): > 2 µM
- IC50 (SBC-1): > 2 µM
- IC50 (RPMI-8866): > 2 µM
- IC50 (HT): > 2 µM
- IC50 (NB5): > 2 µM
- IC50 (NCI-H1155): > 2 µM
- IC50 (DOHH-2): > 2 µM
- IC50 (NCI-H1581): 0.0123 µM
- IC50 (COLO-320-HSR): > 2 µM
- IC50 (MZ1-PC): > 2 µM
- IC50 (ES4): > 2 µM
- IC50 (SK-MEL-1): > 2 µM
- IC50 (NB6): > 2 µM
- IC50 (VA-ES-BJ): > 2 µM
- IC50 (MMAC-SF): > 2 µM
- IC50 (TK-10): > 2 µM
- IC50 (LB1047-RCC): > 2 µM
- IC50 (NCI-H69): > 2 µM
- IC50 (TE-10): > 2 µM
- IC50 (CTB-1): > 2 µM
- IC50 (HL-60): > 2 µM
- IC50 (NCI-H209): > 2 µM
- IC50 (ETK-1): > 2 µM
- IC50 (no-11): > 2 µM
- IC50 (NB12): > 2 µM
- IC50 (RXF 393): > 2 µM
- IC50 (COLO-800): > 2 µM
- IC50 (COLO-829): > 2 µM
- IC50 (SF-268): > 2 µM
- IC50 (C8166): > 2 µM
- IC50 (TE-9): > 2 µM
- IC50 (HCC2157): > 2 µM
- IC50 (GAK): > 2 µM
- IC50 (MN-60): > 2 µM
- IC50 (TE-5): > 2 µM
- IC50 (BV-173): 0.846 µM
- IC50 (L-363): > 2 µM
- IC50 (LB996-RCC): > 2 µM
- IC50 (ES1): > 2 µM
- IC50 (NMC-G1): > 2 µM
- IC50 (NCI-H1092): > 2 µM
- IC50 (KLE): > 2 µM
- IC50 (NCI-H1299): > 2 µM
- IC50 (LS-123): > 2 µM
- IC50 (NH-12): > 2 µM
